Experimental findings from patent US20080207711A1, “Method for treating an ID2-related disorder” (priority 2007, published 2008) are described below.

The test system of the data set is Pkd2−/− mice. The experiment in a line: Treatment of pregnant female mice from a Pkd2+/- cross; newborn pups examined for kidney cysts, kidney size, edema and body size. The class given is in vivo. Here is the method:
FIG. 1. […] (a) wild-type and (b) Pkd2^−/− kidneys without rosiglitazone treatment. (c) Pkd2^+/− and (d) Pkd2^−/− kidneys with rosiglitazone treatment.
Rosiglitazone, which may inhibit Id2 activity, alleviates the effects of Pkd loss of function mutations. This was shown by treating pregnant female mice from a cross between Pkd2^+/− mice with 80 mg/kg diet/day ciglitazone or rosiglitazone for ten days prior to delivery. […] Similarly, Id2 knockout mice were small. […] In contrast, ciglitazone treatment appeared to have no effect on newborn Pkd2^−/− mice.

Where [1] appears, read: mother treated 80 mg/kg diet/day for ten days prior to delivery.

For `CC1(COc2ccc(CC3SC(=O)NC3=O)cc2)CCCCC1` (centres unmarked) [ciglitazone, 5-[4-[(1 methylcyclohexyl)methoxy]benzyl]thiazolidine-2,4-dione], the “effect on newborn Pkd2−/− mice” value under setting [1] was “no effect”.

As for `CN(CCOc1ccc(CC2SC(=O)NC2=O)cc1)c1ccccn1` (centres unmarked) [rosiglitazone, 5-[4-[2-(N-methyl-N-(2-pyridyl)amino)ethoxy]benzyl]thiazolidine-2,4-dione], the “cyst formation in Pkd2−/− kidneys” value (FIG. 1, kidneys with vs without treatment) is recorded as “inhibits cyst formation”. Also, under setting [1], the “body size of newborn pups” value is “small body size in six of newborn pups” and the “edema in Pkd2−/− pup” value is reported as “no edema”. Further, the “kidney size and morphology of Pkd2−/− pup” value (mother treated 80 mg/kg diet/day for ten days prior to delivery, compared to Pkd2−/− littermates of untreated mothers) is “kidneys of normal size and morphology”.
